Assay results taken from patent US20240327382A1 (ALMAC DISCOVERY LIMITED, priority 2021, published 2024).
pIC50: −log10 of the molar value.

target: T1, Full-length USP19 (Homo sapiens, UniProt O94966); assay: USP19 fluorescence polarisation (FP) assay, Ubiquitin-Lys-TAMRA substrate; assay type: biochemical; settings: average of at least two duplicate experiments
T1 construct: Full-length USP19 was purchased from Boston Biochem (E-576); purchased Boston Biochem E-576
T1 sequence (O94966 1-1318): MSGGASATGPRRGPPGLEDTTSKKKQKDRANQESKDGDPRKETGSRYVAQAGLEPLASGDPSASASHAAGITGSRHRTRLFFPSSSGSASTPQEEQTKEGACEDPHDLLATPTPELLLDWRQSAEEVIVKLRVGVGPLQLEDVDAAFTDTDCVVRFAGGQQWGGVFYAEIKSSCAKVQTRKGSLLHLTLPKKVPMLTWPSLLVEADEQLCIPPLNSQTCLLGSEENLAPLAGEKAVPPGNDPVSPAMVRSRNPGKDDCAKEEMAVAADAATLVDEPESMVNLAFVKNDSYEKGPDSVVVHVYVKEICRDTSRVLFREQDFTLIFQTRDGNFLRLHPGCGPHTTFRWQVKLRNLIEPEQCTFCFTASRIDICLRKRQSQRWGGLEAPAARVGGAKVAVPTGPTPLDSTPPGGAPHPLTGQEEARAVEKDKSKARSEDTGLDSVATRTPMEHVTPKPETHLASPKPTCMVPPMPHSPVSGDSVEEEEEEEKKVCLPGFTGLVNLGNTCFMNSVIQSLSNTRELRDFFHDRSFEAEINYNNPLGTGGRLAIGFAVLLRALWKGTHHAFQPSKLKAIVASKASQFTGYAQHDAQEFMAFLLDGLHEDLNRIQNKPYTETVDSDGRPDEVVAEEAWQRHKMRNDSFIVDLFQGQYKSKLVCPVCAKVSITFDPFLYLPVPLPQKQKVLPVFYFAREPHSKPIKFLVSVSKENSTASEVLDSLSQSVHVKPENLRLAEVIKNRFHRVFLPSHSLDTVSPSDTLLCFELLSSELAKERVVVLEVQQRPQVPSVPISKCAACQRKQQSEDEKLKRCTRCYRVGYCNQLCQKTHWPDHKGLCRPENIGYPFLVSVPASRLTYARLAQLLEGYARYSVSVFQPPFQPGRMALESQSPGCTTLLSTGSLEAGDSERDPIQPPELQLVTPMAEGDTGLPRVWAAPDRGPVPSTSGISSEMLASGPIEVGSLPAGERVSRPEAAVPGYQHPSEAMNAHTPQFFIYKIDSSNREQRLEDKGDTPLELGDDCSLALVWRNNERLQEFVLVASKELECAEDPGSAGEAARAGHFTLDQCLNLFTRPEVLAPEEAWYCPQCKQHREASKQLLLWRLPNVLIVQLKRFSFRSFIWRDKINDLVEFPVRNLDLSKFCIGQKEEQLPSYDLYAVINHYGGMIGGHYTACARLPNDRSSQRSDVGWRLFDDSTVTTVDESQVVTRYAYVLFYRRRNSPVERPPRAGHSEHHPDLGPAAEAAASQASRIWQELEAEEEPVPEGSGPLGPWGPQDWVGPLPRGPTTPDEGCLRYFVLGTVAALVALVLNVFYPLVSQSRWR
How it was run: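 Fluorescence polarisation (excitation 530 nm, parallel and perpendicular emission at 575 nm) was recorded every 15 min for 90 min after adding the ubiquitin-Lys-TAMRA isopeptide (500 nM as dispensed). Beforehand, the full-length enzyme (2.5 nM as dispensed) sat 30 min at RT with compound diluted from 200 μM to 2 μM in HEPES pH 7.4 buffer with 150 mM NaCl, 5 mM DTT, 0.05% BSA and 0.05% CHAPS. Values normalised to uninhibited wells gave IC50s by non-linear fitting, each the mean of two or more duplicate runs.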

Compound | pIC50
N[C@@H]1CCN(C(=O)N2CC[C@@H](Cn3cnc(-c4ccccc4)cc3=O)C3(CCCC3)C2)[C@H](c2cccc(F)c2)C1 [Example 66, 3-(((R)-7-((2,4R)-4-Amino-2-(3-fluorophenyl)piperidine-1-carbonyl)-7-azaspiro[4.5]decan-10-yl)methyl)-6-phenylpyrimidin-4(3H)-one] | > 8.00
N[C@@H]1CCN(C(=O)N2CC[C@@H](Cn3ccc(Cl)cc3=O)C3(CCCC3)C2)[C@H](c2ccccc2)C1 [Example 67, 1-(((R)-7-((2S,4R)-4-Amino-2-phenylpiperidine-1-carbonyl)-7-azaspiro[4.5]decan-10-yl)methyl)-4-chloropyridin-2(1H)-one] | > 8.00
CC[C@@H]1C[C@H](N)CCN1C(=O)N1CC[C@@H](Cn2ccc(-c3ccccc3)cc2=O)C2(CCCC2)C1 [Example 68, 1-(((R)-7-((2R,4R)-4-Amino-2-ethylpiperidine-1-carbonyl)-7-azaspiro[4.5]decan-10-yl)methyl)-4-phenylpyridin-2(1H)-one] | 7.00 to 8.00
CC1(C)CN(C(=O)N2CC[C@@H](N)C[C@H]2c2ccccc2)CC[C@H]1Cn1ccc(-c2ccccc2)cc1=O [Example 69, 1-(((R)-1-((2S,4R)-4-Amino-2-phenylpiperidine-1-carbonyl)-3,3-dimethylpiperidin-4-yl)methyl)-4-phenylpyridin-2(1H)-one] | > 8.00
N[C@H]1C[C@@H](c2ccccc2)N(C(=O)N2CC[C@@H](Cn3cnc(-c4ccccc4)cc3=O)C3(CCCC3)C2)C1 [Example 70, 3-(((R)-7-((2S,4S)-4-Amino-2-phenylpyrrolidine-1-carbonyl)-7-azaspiro[4.5]decan-10-yl)methyl)-6-phenylpyrimidin-4(3H)-one] | > 8.00
O=C(N1CC[C@@H](Cn2cnc(-c3ccccc3)cc2=O)C2(CCCC2)C1)N1CC[C@@H](NCC(F)F)C[C@H]1c1ccccc1 [Example 71, 3-(((R)-7-((2S,4R)-4-((2,2-Difluoroethyl)amino)-2-phenylpiperidine-1-carbonyl)-7-azaspiro[4.5]decan-10-yl)methyl)-6-phenylpyrimidin-4(3H)-one] | > 8.00
CN[C@@H]1CCN(C(=O)N2CC[C@@H](Cn3ccc(-c4ccccc4)cc3=O)C(C)(C)C2)[C@H](c2ccccc2)C1 [Example 72, 1-(((R)-3,3-Dimethyl-1-((2S,4R)-4-(methylamino)-2-phenylpiperidine-1-carbonyl)piperidin-4-yl)methyl)-4-phenylpyridin-2(1H)-one] | > 8.00
CO[C@@]1(Cn2ccc(-c3ccccc3)cc2=O)CCN(C(=O)N2CC[C@@H](N)C[C@H]2c2ccccc2)CC12CCCC2 [Example 73, 1-(((S)-7-((2S,4R)-4-Amino-2-phenylpiperidine-1-carbonyl)-10-methoxy-7-azaspiro[4.5]decan-10-yl)methyl)-4-phenylpyridin-2(1H)-one] | > 8.00
CN[C@@H]1CCN(C(=O)N2CCC(Cn3cnc(-c4ccccc4)cc3=O)CC2)[C@H](c2cccc(F)c2)C1 [Example 74, 3-((1-((2S,4R)-2-(3-Fluorophenyl)-4-(methylamino)piperidine-1-carbonyl)piperidin-4-yl)methyl)-6-phenylpyrimidin-4(3H)-one] | > 8.00
CCN[C@@H]1CCN(C(=O)N2CCC(Cn3cnc(-c4ccccc4)cc3=O)CC2)[C@H](c2ccccc2)C1 [Example 75, 3-((1-((2S,4R)-4-(Ethylamino)-2-phenylpiperidine-1-carbonyl)piperidin-4-yl)methyl)-6-phenylpyrimidin-4(3H)-one] | 7.00 to 8.00
COC(=O)[C@@H]1CCN(C(=O)N2CC[C@@H](Cn3cnc(-c4ccccc4)cc3=O)C3(CCCC3)C2)[C@H](c2ccccc2)C1 [Example 76] | 4.70 to 6.00
Cc1ccccc1-c1cc(=O)n(C[C@@H]2CCN(C(=O)N3CC[C@@H](N)C[C@H]3c3ccccc3)CC23CCCC3)cn1 [Example 77, 3-(((R)-7-((2,4R)-4-Amino-2-phenylpiperidine-1-carbonyl)-7-azaspiro[4.5]decan-10-yl)methyl)-6-(o-tolyl)pyrimidin-4(3H)-one] | > 8.00
CN[C@@H]1CCN(C(=O)N2CC[C@@H](Cn3cnc(-c4ccccc4)cc3=O)C3(CCCC3)C2)[C@H](c2cc(F)ccc2F)C1 [Example 78, 3-(((R)-7-((2S,4R)-2-(2,5-Difluorophenyl)-4-(methylamino)piperidine-1-carbonyl)-7-azaspiro[4.5]decan-10-yl)methyl)-6-phenylpyrimidin-4(3H)-one] | > 8.00
O=C(N1CC[C@@H](Cn2cnc(-c3ccccc3)cc2=O)C2(CCCC2)C1)N1CC[C@@H](NC2CC2)C[C@H]1c1ccccc1 [Example 79, 3-(((R)-7-((2S,4R)-4-(Cyclopropylamino)-2-phenylpiperidine-1-carbonyl)-7-azaspiro[4.5]decan-10-yl)methyl)-6-phenylpyrimidin-4(3H)-one] | > 8.00
N[C@@H]1CCN(C(=O)N2CC[C@@H](Cn3cnc(-c4ccccc4)cc3=O)C3(CCCC3)C2)[C@H](c2ccc(F)cc2F)C1 [Example 80, 3-(((R)-7-((2S,4R)-4-Amino-2-(2,4-difluorophenyl)piperidine-1-carbonyl)-7-azaspiro[4.5]decan-10-yl)methyl)-6-phenylpyrimidin-4(3H)-one] | > 8.00
Cc1ccccc1-c1cc(=O)n(C[C@@H]2CCN(C(=O)N3CC[C@@H](N)C[C@H]3c3cccc(F)c3)CC23CCCC3)cn1 [Example 81, 3-(((R)-7-((2S,4R)-4-Amino-2-(3-fluorophenyl)piperidine-1-carbonyl)-7-azaspiro[4.5]decan-10-yl)methyl)-6-(0-tolyl)pyrimidin-4(3H)-one] | > 8.00
Cc1ccccc1-c1cc(=O)n(C[C@@H]2CCN(C(=O)N3CC[C@@H](N)C[C@H]3c3cc(F)ccc3F)CC23CCCC3)cn1 [Example 82, 3-(((R)-7-((2S,4R)-4-Amino-2-(2,5-difluorophenyl)piperidine-1-carbonyl)-7-azaspiro[4.5]decan-10-yl)methyl)-6-(o-tolyl)pyrimidin-4(3H)-one] | > 8.00
CN[C@@H]1CCN(C(=O)N2CC[C@@H](Cn3ccc(Cl)cc3=O)C3(CCCC3)C2)[C@H](c2ccccc2)C1 [Example 83, 4-Chloro-1-(((R)-7-((2S,4R)-4-(methylamino)-2-phenylpiperidine-1-carbonyl)-7-azaspiro[4.5]decan-10-yl)methyl)pyridin-2(1H)-one] | > 8.00
CN[C@@H]1CCN(C(=O)N2CC[C@@H](Cn3cnc(-c4ccccc4C)cc3=O)C3(CCCC3)C2)[C@H](c2ccccc2)C1 [Example 84, 3-(((R)-7-((2S,4R)-4-(Methylamino)-2-phenylpiperidine-1-carbonyl)-7-azaspiro[4.5]decan-10-yl)methyl)-6-(o-tolyl)pyrimidin-4(3H)-one] | > 8.00
N[C@@H]1CCN(C(=O)N2CC[C@@H](Cn3cnc(-c4ccccc4)cc3=O)C3(CCCC3)C2)[C@H](c2cc(F)ccc2F)C1 [Example 86, 3-(((R)-7-((2S,4R)-4-amino-2-(2,5-difluorophenyl)piperidine-1-carbonyl)-7-azaspiro[4.5]decan-10-yl)methyl)-6-phenylpyrimidin-4(3H)-one] | > 8.00
N[C@@H]1CCN(C(=O)N2CC[C@@H](Cn3ccc(-c4ccccc4)cc3=O)C3(CCCC3)C2)[C@H](c2cc(F)ccc2F)C1 [Example 87, 1-(((R)-7-((2S,4R)-4-Amino-2-(2,5-difluorophenyl)piperidine-1-carbonyl)-7-azaspiro[4.5]decan-10-yl)methyl)-4-phenylpyridin-2(1H)-one] | > 8.00
COc1ccccc1-c1ccn(C[C@@H]2CCN(C(=O)N3CC[C@@H](N)C[C@H]3c3cccc(F)c3)CC23CCCC3)c(=O)c1 [Example 88, 1-(((R)-7-((2S,4R)-4-Amino-2-(3-fluorophenyl)piperidine-1-carbonyl)-7-azaspiro[4.5]decan-10-yl)methyl)-4-(2-methoxyphenyl)pyridin-2(1H)-one] | > 8.00
